Laboratory results from patent US8314215B2, “Mild chemically cleavable linker system” (The Board of Trustees of the Leland Stanford Junior …, priority 2006, dated 2012).

What was measured:
[1] = Cleavage of probe by incubation with Na2S2O4, LC-MS analysis; assay type: physicochemical; settings: 100 mM Na2S2O4, after 30 minutes
Experimental: We initially tested the cleavage of SV1 (shown in FIG. 3) by incubation with 100 mM Na2S2O4. After 30 minutes full cleavage of SV1 into the two aniline fragments 3 and 4 (FIG. 3) was observed using LC-MS analysis.

[2] = biological target: T1, Cathepsin B (Rattus norvegicus, UniProt P00787); experiment: Proteases targeted by SV1 after chemoselective release from immobilized streptavidin, LC-MS/MS; assay type: biochemical; settings: rat liver homogenate, SV1 10 μM 2 h
T1 construct: from tissue; host or cells: rat liver homogenate
Experimental: (§1) Rat liver homogenate (20 mg of total protein) in reaction buffer was incubated with SV1 (10 μM) for 2 h. Unreacted probe was removed by filtration over a PD10 column (Amersham Bioscience) and the eluate (in PBS buffer) was shaken with immobilized streptavidin slurry (20 μL) for 1 h. The streptavidin beads were subsequently washed with PBS buffer containing 1M NaCl, 0.1% SDS and 10% EtOH (3× each). Proteases labeled by the probe were cleaved off with Na2S2O4 using the above-described procedure. The pooled supernatant was denatured by incubating with 1 volume of 12 M urea. Next, disulfide bonds were reduced with DTT (10 mM, 60 minutes) and free cysteines were capped with iodoacetamide (40 mM, 60 minutes). Unreacted iodoacetamide was neutralized by addition of an equal amount of DTT and the concentration of urea was lowered to 2 M by addition of water. Trypsin digestion was performed overnight at 37° C. (0.1 μg of trypsin). Digestion was stopped by addition of formic acid (5% final concentration) and digested samples were desalted using a C18 Zip-Tip (Millipore) prior to LC/MS-MS analysis. Data was analyzed by the Sequest algorithm (Novatia) and evaluated by Scaffold (Proteome Software Inc.). Peptides with probability value>95% (in Scaffold) were considered positive hits.
(§2) Although the optimized release of probe-labeled proteins from streptavidin using dithionite is slightly lower in efficiency than under denaturing conditions, this method is likely to result in less background signals leading to easier identification of the target proteases. In addition the direct on-bead cleavage method using a mass spectrometry-compatible buffer allows direct in solution digestion of samples followed by MS analysis. To confirm these issues we analyzed the samples in FIG. 2 by direct solution digestion with trypsin followed by LC-MS/MS analysis of all peptide products. This analysis identified multiple peptides from each of the expected cathepsin proteases without any contamination by background proteins (Table 1). […] A more comprehensive and detailed analysis is reported in Fonović et al., Proteomic evaluation of chemically cleavable activity based probes,” Mol. and Cell Proteomics Manuscript M700-124-MCP200 (published online Jul. 5, 2007).

[3] = biological target: T2, Cathepsin C (Rattus norvegicus, UniProt P80067); experiment: as above; assay type: biochemical; settings: rat liver homogenate, SV1 10 μM 2 h
T2 construct: from tissue; host or cells: rat liver homogenate
Experimental: as §1, §2

[4] = biological target: T3, Cathepsin H (Rattus norvegicus, UniProt P00786); experiment: as above; assay type: biochemical; settings: rat liver homogenate, SV1 10 μM 2 h
T3 construct: from tissue; host or cells: rat liver homogenate
Experimental: as §1, §2

[5] = biological target: T4, Cathepsin Z (Rattus norvegicus, UniProt Q9R1T3); experiment: as above; assay type: biochemical; settings: rat liver homogenate, SV1 10 μM 2 h
T4 construct: from tissue; host or cells: rat liver homogenate
Experimental: as §1, §2

T2 sequence (P80067 25-462): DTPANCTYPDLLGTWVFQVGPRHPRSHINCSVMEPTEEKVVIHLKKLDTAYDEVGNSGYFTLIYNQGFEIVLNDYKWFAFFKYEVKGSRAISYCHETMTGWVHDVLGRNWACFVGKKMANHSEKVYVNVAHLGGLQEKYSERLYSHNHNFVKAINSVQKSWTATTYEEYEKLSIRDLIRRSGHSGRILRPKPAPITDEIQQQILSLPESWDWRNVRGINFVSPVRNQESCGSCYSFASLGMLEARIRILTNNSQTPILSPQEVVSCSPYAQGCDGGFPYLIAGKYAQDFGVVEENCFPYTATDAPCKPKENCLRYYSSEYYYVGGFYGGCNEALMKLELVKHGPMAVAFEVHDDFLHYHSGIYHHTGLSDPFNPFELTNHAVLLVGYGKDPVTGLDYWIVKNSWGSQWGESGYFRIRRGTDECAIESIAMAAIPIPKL
T3 sequence (P00786 96-333): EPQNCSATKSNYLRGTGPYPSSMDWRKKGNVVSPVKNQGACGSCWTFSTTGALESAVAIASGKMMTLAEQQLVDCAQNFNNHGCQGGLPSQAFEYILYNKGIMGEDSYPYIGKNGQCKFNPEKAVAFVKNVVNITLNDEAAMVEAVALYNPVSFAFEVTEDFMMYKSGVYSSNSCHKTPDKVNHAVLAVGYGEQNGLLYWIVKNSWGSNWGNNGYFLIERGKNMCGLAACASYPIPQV
T4 sequence (Q9R1T3 64-306): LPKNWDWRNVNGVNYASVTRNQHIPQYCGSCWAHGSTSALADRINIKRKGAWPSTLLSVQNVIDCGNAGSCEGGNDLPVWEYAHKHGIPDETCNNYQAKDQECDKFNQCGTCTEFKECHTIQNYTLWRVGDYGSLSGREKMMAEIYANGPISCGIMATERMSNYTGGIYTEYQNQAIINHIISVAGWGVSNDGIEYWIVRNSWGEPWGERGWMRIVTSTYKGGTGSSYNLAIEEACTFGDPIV
T1 sequence (P00787 80-333): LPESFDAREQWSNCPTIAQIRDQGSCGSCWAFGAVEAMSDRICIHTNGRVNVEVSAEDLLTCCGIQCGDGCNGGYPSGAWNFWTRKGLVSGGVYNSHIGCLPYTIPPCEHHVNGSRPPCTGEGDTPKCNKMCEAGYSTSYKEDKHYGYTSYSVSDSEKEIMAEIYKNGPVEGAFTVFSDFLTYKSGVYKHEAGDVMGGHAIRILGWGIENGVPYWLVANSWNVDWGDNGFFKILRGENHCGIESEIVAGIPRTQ

CCOC(=O)[C@H]1O[C@@H]1C(=O)N[C@@H](CC(C)C)C(=O)N[C@@H](Cc1ccc(O)cc1)C(=O)NCCc1ccc(O)c(N=Nc2ccc(C(=O)N[C@@H](CCCCNC(=O)CCCC[C@@H]3SC[C@@H]4NC(=O)N[C@@H]43)C(N)=O)cc2)c1 [SV1]
cleavage into the two aniline fragments 3 and 4 [1]: full cleavage | Number of Identified peptides [2]: 2 | Sequence coverage [2]: 8% | Number of Identified peptides [3]: 3 | Sequence coverage [3]: 16% | Number of Identified peptides [4]: 5 | Sequence coverage [4]: 29% | Number of Identified peptides [5]: 4 | Sequence coverage [5]: 32%
